Assay results taken from BigSolDB 2.1.

O=P(c1ccccc1)(c1ccccc1)c1ccccc1
Settings	solubility (mole fraction)
in benzene, 293.78 K	0.055
in benzene, 303.04 K	0.0747
in benzene, 314.12 K	0.0963
in benzene, 323.34 K	0.123
in benzene, 333.45 K	0.152
in ethyl acetate, 294.54 K	0.023
in ethyl acetate, 299.09 K	0.0275
in ethyl acetate, 303.3 K	0.0305
in ethyl acetate, 308.27 K	0.0348
in ethyl acetate, 313.72 K	0.0409
in ethyl acetate, 318.32 K	0.0496
in ethyl acetate, 323.21 K	0.0555
in ethyl acetate, 328.65 K	0.0659
in toluene, 294.42 K	0.0291
in toluene, 298.74 K	0.0346
in toluene, 303.15 K	0.0396
in toluene, 308.36 K	0.0487
in toluene, 313.53 K	0.0548
in toluene, 317.97 K	0.0666
in toluene, 323.13 K	0.0768
in toluene, 328.42 K	0.0882
in toluene, 333.77 K	0.0998
